These results are taken from patent USRE46511E1, “Fused pyrimidine derivatives for inhibition of tyrosine kinase activity” (HANMI SCIENCE CO., LTD., priority 2010, dated 2017).

SMILES strings stand for the structures. Some results are limits rather than exact numbers.

Series [1] deals with HCC827 (EGFR DelE746_A750). Kind of series: Inhibition test for growth of cancer cell expressing EGFR (SRB), HCC827.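 Also: cells in 96-well plates exposed to tenfold serial dilutions from 100 µM, fixed with trichloroacetic acid, SRB-stained, absorbance read at 540 nm, DMSO under 1%.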 In kind it is cell-based. As to conditions: Homo sapiens, HCC827, 72 h, HCC827 cells, 72 hours, SRB; read-out: GI50 HCC827 EGFR DelE746_A750.
Method: A431 cell line was incubated in a high-glucose DMEM (Dulbecco's Modified Eagle's Medium) supplemented with 10% fetal bovine serum (FBS) and 1% penicillin/streptomycin (Gibco BRL), and HCC827 and NCI-H1975 cell lines were incubated in an RPMI medium supplemented with 10% FBS, 1% penicillin/streptomycin and 1% sodium pyruvate.
The cancer cell lines stored in a liquid nitrogen tank were each quickly thawed at 37° C., and centrifuged to remove the medium. The resulting cell pellet was mixed with a culture medium, incubated in a culture flask at 37° C. under 5% CO2 for 2 to 3 days, and the medium was removed. The remaining cells were washed with DPBS (Dulbecco's Phosphate Buffered Saline) and separated from the flask by using Tripsin-EDTA. […] 100 μl of the diluted cell solution was added to each well of a 96-well plate, and incubated at 37° C. under 5% CO2 for 1 day.
In case that the test compound was not soluble in DMSO, 1% HCl was added thereto and treated in a 40° C. water bath for 30 mins until a complete dissolution was attained. The DMSO solution containing test compound was diluted with a culture medium to a final concentration of 100 μM, and then diluted 10 times serially to 10^−6 μM (a final concentration of DMSO was less than 1%).
The medium was removed from each well of the 96-well plate. And then, 100 μl of a test compound solution was added to each well holding the cultured cells, and the plate was incubated at 37° C. under 5% CO2 for 72 hours (except that NCI-H1975 cells were incubated for 48 hours). After removing the medium from the plate, 50 μA of 10% trichloroacetic acid was added to each well, and the plate was kept at 4° C. for 1 hour to fix the cells to the bottom of the plate. The added 10% trichloroacetic acid solution was removed from each well, the plate was dried, 100 μA of an SRB (Sulforhodamine-B) dye solution at a concentration of 0.4% dissolved in 1% acetic acid was added thereto, and the resulting mixture was reacted for 10 mins at room temperature. After removing the dye solution, the plate was washed with water, and well dried. When the dye solution was not effectively removed by water, 1% acetic acid was used. 150 μA of 10 mM trisma base was added to each well, and the absorbance at 540 nm wavelength was determined with a microplate reader.
Series [2] has as its system NCI-H1975 (EGFR L858R/T790M). As to the kind of experiment: Inhibition test for growth of cancer cell expressing EGFR (MTS), NCI-H1975. It counts as cell-based. As to conditions: Homo sapiens; NCI-H1975 cells, 48 hours, MTS; read-out: GI50 NCI-H1975 EGFR L858R/T790M.
The subject of the next series is A431 (EGFR WT). As to the kind of experiment: Inhibition test for growth of cancer cell expressing EGFR (SRB), A431.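 Also: cells in 96-well plates exposed to tenfold serial dilutions from 100 µM down to 10^−6 µM, DMSO under 1%, SRB staining read as absorbance at 540 nm.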 It counts as cell-based. As to conditions: Homo sapiens, A-431; A431 cells, 72 hours, SRB; read-out: GI50 A431 EGFR WT.
The next series deals with T1, EGFR WT (Homo sapiens, UniProt P00533).
T1 construct: purchased Invitrogen
Kind of series: z-lyte kinase assay, EGFR WT. In kind it is biochemical.

Another series concerns the target T2, EGFR L858R/T790M (Homo sapiens, UniProt P00533, L858R/T790M).
T2 construct: purchased Invitrogen
Kind of series: z-lyte kinase assay, EGFR L858R/T790M. In kind it is biochemical.

The subject of another series is NCI-H1975 cancer cells. As to the kind of experiment: Anticancer efficacy test in nude mice xenografted with NCI-H1975 cancer cells. As to conditions: oral, one time a day for 10 days, measured on 16th day after administration. In kind it is in vivo. Here is the method:
NCI-H1975 cell (lung cancer cell) was purchased from American Type Culture Collection (ATCC). After formation of tumor by subcutaneous injection with 1×10^8 cells/0.3 mL of tumor cell suspension on the back of mice, passages were carried out and tumor in at least third generation was used in the test.
(§1) In the test, a tumor in the sixth generation isolated from an individual was cut into a size of 30 mg, and transplanted subcutaneously into right flanks of mice using a 12-gauge trocar. The volume of tumor (V) is calculated from following equation 1 after measuring a long diameter (L) and a short diameter (S) using a vernier caliper twice a week for 18 days of test. All test materials were orally administered one time a day for total 10 days, and the tumor growth inhibition rate (IR: tumor growth inhibition rate (%) calculated based on a vehicle-treated control) and the maximum body weight loss (mBWL: maximum body weight loss calculated based on the body weight just before administration) were calculated using following equations 2 and 3. V=L×S^2/2 <Equation 1>
wherein, L is a long diameter and S is a short diameter. IR(%)=(1−(RTG of the treatment group of test material)/(RTG of the control group))×100 <Equation 2>

Series [3] in a line: Body weight change in nude mice xenografted with NCI-H1975 cancer cells. It counts as in vivo. As to conditions: for mBWL (maximum body weight loss): oral, one time a day for 10 days, measured on 10th day after administration. Here is the method: as §1, with “. In” for “In”
wherein, RTG is a relative tumor growth, which is the mean tumor volume on a particular day based on […] mean tumor volume. mBWL(%)=(1−(mean body weight on day x/mean body weight just before administration))×100 <Equation 3>
wherein, day x is a day on which the body weight loss is largest during the test.

T1 sequence (P00533 25-1210): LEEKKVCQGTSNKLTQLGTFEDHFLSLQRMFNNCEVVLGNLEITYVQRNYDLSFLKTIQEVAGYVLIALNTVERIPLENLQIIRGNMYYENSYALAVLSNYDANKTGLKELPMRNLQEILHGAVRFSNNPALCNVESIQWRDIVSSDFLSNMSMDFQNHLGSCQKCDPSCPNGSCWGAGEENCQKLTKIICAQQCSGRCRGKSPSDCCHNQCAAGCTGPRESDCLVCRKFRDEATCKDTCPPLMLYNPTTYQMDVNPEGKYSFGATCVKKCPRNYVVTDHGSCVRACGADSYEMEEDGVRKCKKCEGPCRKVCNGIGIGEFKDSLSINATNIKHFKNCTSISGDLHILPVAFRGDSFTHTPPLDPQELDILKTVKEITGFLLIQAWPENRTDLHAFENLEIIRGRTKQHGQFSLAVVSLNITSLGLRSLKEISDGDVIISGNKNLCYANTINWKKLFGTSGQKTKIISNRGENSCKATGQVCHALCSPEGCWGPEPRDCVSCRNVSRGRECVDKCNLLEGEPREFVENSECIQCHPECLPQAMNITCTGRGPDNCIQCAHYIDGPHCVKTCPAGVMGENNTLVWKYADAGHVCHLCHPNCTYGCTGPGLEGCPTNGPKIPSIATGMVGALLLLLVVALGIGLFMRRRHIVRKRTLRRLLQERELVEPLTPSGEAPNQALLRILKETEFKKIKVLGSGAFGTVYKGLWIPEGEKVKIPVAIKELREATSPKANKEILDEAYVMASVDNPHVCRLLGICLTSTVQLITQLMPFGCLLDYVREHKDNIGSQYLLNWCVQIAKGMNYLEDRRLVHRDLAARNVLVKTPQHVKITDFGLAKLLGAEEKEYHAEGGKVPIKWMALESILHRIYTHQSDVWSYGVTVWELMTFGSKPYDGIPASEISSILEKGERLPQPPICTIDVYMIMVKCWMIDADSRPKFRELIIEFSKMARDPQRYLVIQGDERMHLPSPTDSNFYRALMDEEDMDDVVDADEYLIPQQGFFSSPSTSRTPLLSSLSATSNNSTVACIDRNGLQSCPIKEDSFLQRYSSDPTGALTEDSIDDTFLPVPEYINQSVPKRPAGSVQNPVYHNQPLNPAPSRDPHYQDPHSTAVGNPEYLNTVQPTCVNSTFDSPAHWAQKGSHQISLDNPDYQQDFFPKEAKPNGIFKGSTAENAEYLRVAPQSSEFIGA
T2 sequence (P00533 25-1210 T790M/L858R): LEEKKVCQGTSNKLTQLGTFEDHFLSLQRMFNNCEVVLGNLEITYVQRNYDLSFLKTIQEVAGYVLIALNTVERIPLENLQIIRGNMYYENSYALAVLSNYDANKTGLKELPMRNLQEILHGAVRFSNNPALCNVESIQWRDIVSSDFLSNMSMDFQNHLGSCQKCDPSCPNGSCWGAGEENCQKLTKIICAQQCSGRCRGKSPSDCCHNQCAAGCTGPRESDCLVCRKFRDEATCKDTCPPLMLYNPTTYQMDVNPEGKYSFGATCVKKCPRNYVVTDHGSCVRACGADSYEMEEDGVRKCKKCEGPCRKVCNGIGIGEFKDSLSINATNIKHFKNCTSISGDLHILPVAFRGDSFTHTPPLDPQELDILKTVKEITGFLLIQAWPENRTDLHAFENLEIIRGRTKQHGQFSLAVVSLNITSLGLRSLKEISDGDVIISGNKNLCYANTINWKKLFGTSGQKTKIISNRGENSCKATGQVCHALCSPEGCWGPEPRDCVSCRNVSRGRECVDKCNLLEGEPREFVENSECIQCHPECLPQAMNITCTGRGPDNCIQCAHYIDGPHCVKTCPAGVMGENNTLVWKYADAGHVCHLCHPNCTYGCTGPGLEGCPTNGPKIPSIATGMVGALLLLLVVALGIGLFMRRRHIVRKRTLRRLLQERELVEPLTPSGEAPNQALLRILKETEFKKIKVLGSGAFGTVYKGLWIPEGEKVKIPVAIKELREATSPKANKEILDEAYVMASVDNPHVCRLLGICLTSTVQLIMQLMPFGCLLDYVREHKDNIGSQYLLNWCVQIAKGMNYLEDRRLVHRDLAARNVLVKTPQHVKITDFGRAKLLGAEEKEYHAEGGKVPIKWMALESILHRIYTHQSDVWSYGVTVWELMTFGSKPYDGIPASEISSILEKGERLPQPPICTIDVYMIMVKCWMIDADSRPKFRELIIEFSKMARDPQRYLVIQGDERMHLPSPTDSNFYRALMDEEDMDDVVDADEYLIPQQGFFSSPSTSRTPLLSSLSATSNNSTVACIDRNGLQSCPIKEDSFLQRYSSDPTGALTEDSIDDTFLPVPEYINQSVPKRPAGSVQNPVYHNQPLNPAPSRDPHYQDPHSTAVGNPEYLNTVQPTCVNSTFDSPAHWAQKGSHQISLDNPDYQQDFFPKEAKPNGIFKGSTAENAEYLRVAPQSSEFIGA

One may read the IC50 as the concentration that gives 50% inhibition. Higher therefore signals weaker potency in that assay. Take `C=CC(=O)Nc1cccc(Oc2nc(Nc3ccc(N4CCN(C)CC4)cc3OC)nc3ccsc23)c1` [Example 2]: the GI50 in series [1] was 0.05 to 0.1 µM; in series [2] it was 0.05 to 0.1 µM; in the series with A431 (EGFR WT), more than 1 µM. Besides, the IC50 was more than 1 µM at EGFR WT and less than 0.05 µM on EGFR L858R/T790M. The “IR (tumor growth inhibition rate)” value with NCI-H1975 cancer cells (70 mg/kg) came out at 75%. Besides, in series [3] (70 mg/kg), the “mBWL (maximum body weight loss)” value is reported as −7.6%. Also, the weight gain in series [3] (in therapeutically equivalent dose (70 mg/kg), NCI-H1975 xenografted nude mice) is 7.6%.

Consider `CN(C)C/C=C/C(=O)Nc1cc2c(Nc3ccc(F)c(Cl)c3)ncnc2cc1O[C@H]1CCOC1` [BIBW2992, Afatinib, reference compound], for which, in the series on NCI-H1975 cancer cells (50 mg/kg), the “IR (tumor growth inhibition rate)” value is given as 77%. Besides, the “mBWL (maximum body weight loss)” value in series [3] (50 mg/kg) was determined as 9.1%.
